Test [1] has as its system muscarinic acetylcholine receptor (mAChR). The experiment in a line: Protection of mAChR from inactivation by the endogenous LMW inhibitor, [3H]QNB (antagonist) binding. The arrangement: species or system human. Conditions: for EC50: read-out: concentration that provides 50% protection of the mAChR; for protection of the mAChR from inactivation by the LMW inhibitor (in words): FIGS. 4-7, 15, 17, 19.

The target of test [2] is muscarinic acetylcholine receptor (mAChR). Conditions: read-out: concentration that provides 50% protection of the mAChR from damage by PbCl2, 3H-QNB binding, FIG. 20.
Test [3] shares this target. The experiment in a line: Protection of mAChR from inactivation by heme and peroxide, [3H]QNB (antagonist) binding. Details: species or system human. The note with it: 3H-QNB binding, FIG. 16.
The mark [4] stands for this setting: LMW inhibitor, 3H-QNB binding, FIGS. 11, 13, 14.

Where two headings read alike, the source gives them in different places.

In the case of `CC(C)c1cc2c(c(O)c1O)[C@@]13CCCC(C)(C)[C@@H]1C[C@@H]2OC3=O` [carnosol], the “protection of the mAChR from inactivation” value in test [1] (at 1 μM, LMW inhibitor, 3H-QNB binding, FIG. 12) is 100%.

With `O=P(O)(O)OP(=O)(O)O` [pyrophosphate], the EC50 was roughly 57 µM in test [2]; roughly 1 µM in test [1] (inactivation by LMW inhibitor or heme and peroxide, loss of antagonist (3H-QNB) and agonist (3H-Oxotremorine M) binding, FIGS. 1-3, not specified further).

In the case of `O=P(O)(O)OP(=O)(O)OP(=O)(O)O` [tripolyphosphate], the “protection of the mAChR from inactivation by the LMW inhibitor (in words)” value (shortened to “protection … by the LMW inhibitor (in words)”) in test [1] (LMW inhibitor, 3H-QNB binding) is “protect the mAChR from inactivation”.

Turning to `Nc1ncnc2c1ncn2[C@@H]1O[C@H](COP(=O)(O)OP(=O)(O)NP(=O)(O)O)[C@@H](O)[C@H]1O` [adenylylimidodiphosphate], the “protection … by the LMW inhibitor (in words)” value in test [1] (LMW inhibitor, 3H-QNB binding) is “protect the mAChR from inactivation”.

On to `O=c1c(O)c(-c2ccc(O)c(O)c2)oc2cc(O)cc(O)c12` [quercetin], for which the EC50 in test [1] (setting [4]) stood at 0.24 µM.

Consider catalase, for which the “amount that provided 50% protection from inactivation by heme and peroxide” value in test [3] is 0.34 units/mL. Also, the “protection … by the LMW inhibitor (in words)” value in test [1] (LMW inhibitor, 3H-QNB binding) is “protected the mAChR from inactivation”.

Regarding `O=c1c(O)c(-c2cc(O)c(O)c(O)c2)oc2cc(O)cc(O)c12` [myricetin], the EC50 in test [1] (setting [4]) was 0.4 µM.

With `C=CC1=C(C)/C(=C/C2=NC(=C\c3[nH]c(/C=C4\NC(=O)C(C)=C4C=C)c(C)c3CCC(=O)O)/C(CCC(=O)O)=C2C)NC1=O` [biliverdin], in test [1] (setting [4]), the EC50 was 3 µM.

These data come from patent publication US9072756B2, “Methods and compositions for increasing the efficacy of an agent that directly or indirectly affects a muscarinic receptor through administration of a pyrophosphate analog” (HealthPartners Research Foundation, priority 2000, dated 2015).
